Patent US8461150B2, “Chalcone linked pyrrolo[2,1-c][1, 4]benzodiazepine hybrids as potential anticancer agents and process for the preparation thereof” (Council of Scientific & Industrial Research, priority 2008, dated 2013)

Legend:
[1] = test system: duplex-form calf thymus DNA (CT-DNA); test: Thermal denaturation studies with calf thymus DNA; format: binding; settings: [PBD]:[DNA] molar ratio 1:5, CT-DNA 100 μM, ligand 20 μM, pH 7.00; for ΔTμ (° C.) after incubation at 37 °C. for 0 h: 0 h incubation; for ΔTμ (° C.) after incubation at 37 °C. for 18 h: 18 h incubation
Method: These compounds have also been subjected to thermal denaturation studies with duplex-form calf thymus DNA (CT-DNA) using an modification of a reported procedure. Working solutions in aqueous buffer (10 mM NaH2PO4/Na2HPO4, 1 mM Na2EDTA, pH 7.00+0.01) containing CT-DNA (100 μm in phosphate) and the PBD (20 μm) have been prepared by addition of concentrated PBD solutions in DMSO to obtain a fixed [PBD]/[DNA] molar ratio of 1:5. The DNA-PBD solutions have been incubated at 37° C. for 0 and 18 h prior to analysis. Samples have been monitored at 260 nm using a Beckman DU-800 spectrophotometer fitted with high performance temperature controller, and heated at 1° C. min^−1 in the 40-110° C. range. DNA helix→coil transition temperatures (Tm) have been obtained from the maxima in the d(A260)/d T derivative plots. Drug-induced alterations in DNA melting behavior are given by: ΔTm=Tm(DNA+PBD)−Tm(DNA alone), where the Tm value for the PBD-free CT-DNA is 68.5±0.01.

[2] = test system: human tumour cell lines; test: In vitro cytotoxicity, mean graph midpoints (MG_MID) over human tumour cell lines; format: cell-based; settings: human tumour cell lines, 48 h exposure, SRB
Method: (§1) Biological Activity: The in vitro cell line studies were carried out at the National Cancer Institute, Maryland, USA.
(§2) 6b, 6c, 6g, 10a and 10b were evaluated for in vitro anticancer activity against sixty human tumour cells derived from nine cancer types (leukemia, non-small-cell lung, colon, CNS, melanoma, ovarian, prostate, renal and breast cancer) as shown in (Table 1 and 2). For the compound, dose response curves for each cell line were measured at a minimum of five concentrations at 10 fold dilutions. A protocol of 48 h continuous drug exposure was used and a sulforhodamine B (SRB) protein assay was used to estimate cell viability or growth. The concentration causing 50% cell growth inhibition (GI50), total cell growth inhibition (TGI 0% growth) and 50% cell death (LC50, −50% growth) compared with the control was calculated.

[3] = test system: Breast cancer cell lines; test: NCI in vitro anticancer screen, SRB assay, 48 h, panel average; format: cell-based, human; settings: average of six to eight cell lines, 48 h exposure
Method: as §1
(§3) Cytotoxicity: • The compounds 6b) 7-Methoxy-8-{4-[1-(4-fluorophenyl)-3-(4-hydroxy-3-methoxyphenyl)-2-propen-1-one]butyl}-oxy-(11aS)-1,2,3,11a-5H-pyrrolo[2,1-c][1,4]benzodiazepin-5-one; • (6c) 7-Methoxy-8-{5-[1-(4-fluorophenyl)-3-(4-hydroxy-3-methoxyphenyl)-2-propen-1-one]pentyl}-oxy-(11aS)-1,2,3,11a-5H-pyrrolo[2,1-c][1,4]benzodiazepin-5-one; • (6g) 7-Methoxy-8-{3-[1-(2-hydroxyphenyl)-3-(4-hydroxy-3-methoxyphenyl)-2-propen-1-one]propyl}-oxy-(11aS)-1,2,3,11a-5H-pyrrolo[2,1-c][1,4]benzodiazepin-5-one; • (10a) 7-Methoxy-8-{3-[3-(4-hydroxy-3-methoxyphenyl)-1-(2,4-dimethyl-3-quinolyl)-2-propen-1-one]propyl}-oxy-(11aS)-1,2,3,11a-5H-pyrrolo[2,1-c][1,4]benzodiazepin-5-one • (10b) 7-Methoxy-8-{4-[3-(4-hydroxy-3-methoxyphenyl)-1-(2,4-dimethyl-3-quinolyl)-2-propen-1-one]butyl}-oxy-(11aS)-1,2,3,11a-5H-pyrrolo[2,1-c][1,4]benzodiazepin-5-one; were evaluated for in vitro anticancer activity against […] derived from […] (leukemia, ovarian, renal, melanoma, CNS, colon, prostate, lung, cervix and breast cancer) as shown in (Table 1, 2 and 3)
as §2
(§4) Each cancer type represents the average of six to eight different cancer cell lines.

[4] = test system: Prostate cancer cell lines; test: as above; format: cell-based, human; settings: average of six to eight cell lines, 48 h exposure
Method: as §1, §3, §2, §4

[5] = test system: Colon cancer cell lines; test: as above; format: cell-based, human; settings: average of six to eight cell lines, 48 h exposure
Method: as §1, §3, §2, §4

[6] = test system: Leukemia cancer cell lines; test: as above; format: cell-based, human; settings: average of six to eight cell lines, 48 h exposure
Method: as §1, §3, §2, §4

[7] = test system: Non-small cell lung cancer cell lines; test: as above; format: cell-based, human; settings: average of six to eight cell lines, 48 h exposure
Method: as §1, §3, §2, §4

[8] = test system: Ovarian cancer cell lines; test: as above; format: cell-based, human; settings: average of six to eight cell lines, 48 h exposure
Method: as §1, §3, §2, §4

[9] = test system: CNS cancer cell lines; test: as above; format: cell-based, human; settings: average of six to eight cell lines, 48 h exposure
Method: as §1, §3, §2, §4

[10] = test system: Renal cancer cell lines; test: as above; format: cell-based, human; settings: average of six to eight cell lines, 48 h exposure
Method: as §1, §3, §2, §4

[11] = test system: Melanoma cancer cell lines; test: as above; format: cell-based, human; settings: average of six to eight cell lines, 48 h exposure
Method: as §1, §3, §2, §4

[12] = test system: HCT-116 (Colon); test: Cytotoxicity in selected cancer cell lines (SRB, 48 h); format: cell-based, human
Method: as §1, §2
(§5) Each cancer type represents the average of six to nine different cancer cell lines. In vitro evaluation of cytotoxic activity. The compound 6b, 6c, 6g 10a and 10b were evaluated for in vitro anticancer activity against nine human tumour cells derived from six cancer types (leukemia, colon, prostate, melanoma, ovarian, lung, cervix and breast cancer) as shown in Table 3. […] Compounds 6b, 6c, 6g, 10a and 10b have been evaluated for their in vitro cytotoxicity in selected human cancer cell lines of colon (Colo205), lung (NCI-H522, NCI-H226), colon (colo-205), prostate (DU145, PC3), ovarian (IGROV1, HT1080), and breast (MDA-MB-435, Zr-75-1), melanoma (LOXMIVI, VACC-62, SK-MEL-5) origin. A protocol of 48 h continuous drug exposure has been used and an […] has been used to estimate cell viability or growth. The results are expressed as percent of cell growth determined relative to that of untreated control cells

[13] = test system: U251 (CNS); test: as above; format: cell-based, human
Method: as §1, §2, §5

[14] = test system: UACC-62 (Melanoma); test: as above; format: cell-based, human
Method: as §1, §2, §5

[15] = test system: SK-MEL-5 (Melanoma); test: as above; format: cell-based, human
Method: as §1, §2, §5

[16] = test system: MDA-MB-231/ATCC (Breast); test: as above; format: cell-based, human
Method: as §1, §2, §5

[17] = test system: HL-60(TB) (Leukemia); test: as above; format: cell-based, human
Method: as §1, §2, §5

[18] = test system: OVCAR-3 (Ovarian); test: as above; format: cell-based, human
Method: as §1, §2, §5

[19] = test system: HCT-15 (Colon); test: as above; format: cell-based, human
Method: as §1, §2, §5

[20] = test system: MALME-3M (Melanoma); test: as above; format: cell-based, human
Method: as §1, §2, §5

[21] = test system: CAKI-1 (Renal); test: as above; format: cell-based, human
Method: as §1, §2, §5

[22] = test system: CCRF-CEM (Leukemia); test: as above; format: cell-based, human
Method: as §1, §2, §5

[23] = test system: LOX IMVI (Melanoma); test: as above; format: cell-based, human
Method: as §1, §2, §5

[24] = test system: NCI-H522 (Non-small cell lung); test: as above; format: cell-based, human
Method: as §1, §2, §5

[25] = test system: SW-620 (Colon); test: as above; format: cell-based, human
Method: as §1, §2, §5

[26] = test system: SF-539 (CNS); test: as above; format: cell-based, human
Method: as §1, §2, §5

[27] = test system: NCI/ADR-RES (Breast); test: as above; format: cell-based, human
Method: as §1, §2, §5

[28] = test system: NCI-H226 (Non-small cell lung); test: as above; format: cell-based, human
Method: as §1, §2, §5

[29] = test system: 786-0 (Renal); test: as above; format: cell-based, human
Method: as §1, §2, §5

[30] = test system: RPMI-8226 (Leukemia); test: as above; format: cell-based, human
Method: as §1, §2, §5

[31] = test system: ACHN (Renal); test: as above; format: cell-based, human
Method: as §1, §2, §5

[32] = test system: TK-10 (Renal); test: as above; format: cell-based, human
Method: as §1, §2, §5

[33] = test system: NCI-H23 (Non-small cell lung); test: as above; format: cell-based, human
Method: as §1, §2, §5

[34] = test system: M14 (Melanoma); test: as above; format: cell-based, human
Method: as §1, §2, §5

[35] = test system: UO-31 (Renal); test: as above; format: cell-based, human
Method: as §1, §2, §5

[36] = test system: UACC-257 (Melanoma); test: as above; format: cell-based, human
Method: as §1, §2, §5

[37] = test system: A498 (Renal); test: as above; format: cell-based, human
Method: as §1, §2, §5

Compound: COc1cc(C=CC(=O)c2ccc(F)cc2)ccc1OCCCOc1cc2c(cc1OC)C(=O)N1CCC[C@H]1C=N2 [6a, 7-Methoxy-8-{3-[1-(4-fluorophenyl)-3-(4-hydroxy-3-methoxyphenyl)-2-propen-1-one]propyl}-oxy-(11aS)-1,2,3,11a-5H-pyrrolo[2,1-c][1,4]benzodiazepin-5-one]
- ΔTμ (° C.) after incubation at 37 °C. for 0 h [1]: 1.7 °C
- ΔTμ (° C.) after incubation at 37 °C. for 18 h [1]: 2.4 °C

Compound: COc1cc(C=CC(=O)c2ccccc2O)ccc1OCCCOc1cc2c(cc1OC)C(=O)N1CCC[C@H]1C=N2 [6d, 7-Methoxy-8-{3-[1-(2-hydroxyphenyl)-3-(4-hydroxy-3-methoxyphenyl)-2-propen-1-one]propyl}-oxy-(11aS)-1,2,3,11a-5H-pyrrolo[2,1-c][1,4]benzodiazepin-5-one]
- ΔTμ (° C.) after incubation at 37 °C. for 0 h [1]: 2.1 °C
- ΔTμ (° C.) after incubation at 37 °C. for 18 h [1]: 2.6 °C

Compound: COc1cc(/C=C/C(=O)c2ccc(O)cc2)ccc1OCCCOc1cc2c(cc1OC)C(=O)N1CCC[C@H]1C=N2 [6g, 7-Methoxy-8-{3-[1-(4-hydroxyphenyl)-3-(4-hydroxy-3-methoxyphenyl)-2-propen-1-one]propyl}-oxy-(11aS)-1,2,3,11a-5H-pyrrolo[2,1-c][1,4]benzodiazepin-5-one]
- Log10LC50 mean graph midpoint (MG_MID) ([2]; 50% cell death): −4.58
- Log10GI50 mean graph midpoint (MG_MID) [2]: −5.78
- Log10TGI mean graph midpoint (MG_MID) ([2]; total cell growth inhibition): −5.86
- Log GI50 (concentration in mol/L causing 50% growth inhibition) [3]: −6.57 mol/L
- Log GI50 (concentration in mol/L causing 50% growth inhibition) [4]: −4.63 mol/L
- Log GI50 (concentration in mol/L causing 50% growth inhibition) [5]: −5.85 mol/L
- Log GI50 (concentration in mol/L causing 50% growth inhibition) [6]: −5.62 mol/L
- Log GI50 (concentration in mol/L causing 50% growth inhibition) [7]: −5.82 mol/L
- Log GI50 (concentration in mol/L causing 50% growth inhibition) [8]: −5.56 mol/L
- Log GI50 (concentration in mol/L causing 50% growth inhibition) [9]: −5.62 mol/L
- Log GI50 (concentration in mol/L causing 50% growth inhibition) [10]: −5.67 mol/L
- Log GI50 (concentration in mol/L causing 50% growth inhibition) [11]: −5.65 mol/L
- GI50 [12]: 14.6 µM
- GI50 [13]: 19.8 µM
- GI50 [14]: 22.5 µM
- GI50 [15]: 23.3 µM
- GI50 [16]: 14.2 µM
- GI50 [17]: 49.5 µM
- GI50 [18]: 46.3 µM
- GI50 [19]: 18.4 µM
- GI50 [20]: 36.2 µM
- GI50 [21]: 22.9 µM
- GI50 [22]: 37.4 µM
- GI50 [23]: 15 µM
- GI50 [24]: 18.3 µM
- GI50 [25]: 26.9 µM
- GI50 [26]: 33.7 µM
- GI50 [27]: 28.7 µM
- GI50 [28]: 28.4 µM
- GI50 [29]: 24.9 µM
- GI50 [30]: 46.8 µM
- GI50 [31]: 46.1 µM
- GI50 [32]: 31.4 µM
- GI50 [33]: 22.5 µM
- GI50 [34]: 18.8 µM
- GI50 [35]: 45.2 µM
- GI50 [36]: 15.9 µM
- GI50 [37]: 29 µM

Compound: COc1cc(C=CC(=O)c2c(C)nc3ccccc3c2C)ccc1OCCCCCOc1cc2c(cc1OC)C(=O)N1CCC[C@H]1C=N2 [10c, 7-Methoxy-8-{5-[3-(4-hydroxy-3-methoxyphenyl)-1-(2,4-dimethyl-3-quinolyl)-2-propen-1-one]pentyl}-oxy-(11aS)-1,2,3,11a-5H-pyrrolo[2,1-c][1,4]benzodiazepin-5-one]
- ΔTμ (° C.) after incubation at 37 °C. for 0 h [1]: 4.7 °C
- ΔTμ (° C.) after incubation at 37 °C. for 18 h [1]: 5.1 °C

Compound: COc1cc(C=CC(=O)c2c(C)nc3ccccc3c2C)ccc1OCCCCCCOc1cc2c(cc1OC)C(=O)N1CCC[C@H]1C=N2 [10d, 7-Methoxy-8-{6-[3-(4-hydroxy-3-methoxyphenyl)-1-(2,4-dimethyl-3-quinolyl)-2-propen-1-one]hexyl}-oxy-(11aS)-1,2,3,11a-5H-pyrrolo[2,1-c][1,4]benzodiazepin-5-one]
- ΔTμ (° C.) after incubation at 37 °C. for 0 h [1]: 4.9 °C
- ΔTμ (° C.) after incubation at 37 °C. for 18 h [1]: 5.3 °C

Compound: COc1cc2c(cc1O)N=CC1CCCN1C2=O (stereo not drawn) [DC-81, reference compound]
- ΔTμ (° C.) after incubation at 37 °C. for 0 h [1]: 0.3 °C
- ΔTμ (° C.) after incubation at 37 °C. for 18 h [1]: 0.7 °C
